Like-named read-outs stand apart in the source and are kept apart here.

Results on one compound are retold here after paper PMC9401491, “The Novel Nucleoside Analogue ProTide NUC-7738 Overcomes Cancer Resistance Mechanisms In Vitro and in a First-In-Human Phase I Clinical Trial” (Clinical Cancer Research, 2021).

One data set relates to Tera-1. Put plainly: MTT cell viability, Tera-1. Format: cell-based. As for the experimental part: (§1) Cells (10^4) were seeded into 96-well plates and then treated with NUC-7738 (lot 5132/E00393/119) or 3′-dA (cordycepin, catalog no. C3394, lot 067M4182, Sigma) for 48 hours. One and a half milligrams per milliliter MTT (catalog no. M6494, Invitrogen) in a 1:1 ratio was added to cell culture media. After a 2-hour incubation at 37°C, media was removed and 70 μl of isopropanol was added. Optical densities at 570 nm were measured using POLARstar Omega plate reader. Readouts were normalized and IC50 values were calculated using a nonlinear regression model in Graphpad prism (v8.3.0). Each biological replicate (at least 3) was performed in 4 technical replicates to calculate the average IC50 value. To measure apoptosis, the Guava NexinReagent (Luminex Corp.) was used following manufacturer's instructions. Fluorescence staining was measured with an automated 96-well Guava easyCyte Flow Cytometer (Luminex Corp.).

Another data set deals with UM-RC-2. Nature of the data set: IC50 in renal cancer cell line UM-RC-2. Type of data set: cell-based. The settings on record: UMRC2.
The next data set deals with AGS. Nature of the data set: MTT cell viability, AGS. The settings on record: Homo sapiens, 48 h. Type of data set: cell-based. The protocol:
as §1

The next data set has as its system CAKI-1. Nature of the data set: MTT cell viability, CAKI-1. Type of data set: cell-based. To be noted: Homo sapiens, CAKI-1, 48 h. As for the experimental part: as §1
A further data set has as its system 786-O. Put plainly: IC50 in renal cancer cell line 786-O. Format: cell-based. The settings on record: Homo sapiens, 786-0.
Data set [1] deals with human ccRCC tissue slices. Put plainly: Ex vivo tissue slice culture of clear cell renal carcinoma. Type of data set: cell-based. To be noted: 0, 5 and 25 μmol/L, 24 hours. The source says:
A fresh sample of clear cell renal carcinoma (ccRCC) was placed in formalin to serve as a formalin control for our experiment. The sample was transported in precooled 199 medium (catalog no. 2154) supplemented with penicillin/streptomycin (1%), Normocin (0.2%), and Glutamax (2 mmol/L). The tissue sample was embedded in low-melting point agarose gel and sliced into 250-μm sections using a Vibratome VT1000S (Leica Biosystems). Tissue slices were put immediately into media (199 medium supplemented with 10% FBS, 2 mmol/L Glutamax, and 1% penicillin/streptomycin) containing different concentrations of NUC-7738 (0, 5, and 25 μmol/L) and incubated for 24 hours at 37°C. Treated tissue sections were then fixed using PFA for 1 hour at room temperature and stored in PBS at 4°C. The treated slices were later embedded in paraffin and subsequently sliced into 3-μm sections using a microtome. The sections were placed on slides and baked overnight at 40°C. Sections were dewaxed using xylene and rehydrated in a graded alcohol series followed by tap water. […]
Immunofluorescence staining was performed using BOND RX. NF-κB p65 (catalog no. 4764, CST) and cleaved caspase-3 (catalog no. 9661, CST) were detected with HRP-conjugated secondary antibody and visualized using tyramide-fluorophore conjugates (TSA Cy5 for both). […]

A further data set relates to NCI-786. Nature of the data set: MTT cell viability, NCI-786. Type of data set: cell-based. To be noted: 48 h. The protocol:
as §1

Another data set relates to UO-31. Put plainly: MTT cell viability, UO-31. Type of data set: cell-based. The settings on record: Homo sapiens, UO-31, 48 h. As for the experimental part: as §1
Details of data set [2]: method as in PMID 22833171, PMID 24419340. The settings on record: human serum; cited from earlier work.
The subject of data set [3] is Gastric or cervical cancer cells. Put plainly: Apoptosis by cleaved PARP Western blot. The settings on record: 50 and 100 μmol/L, 24 hours. Type of data set: cell-based. The protocol:
as §1
Cells were harvested and lyzed using RIPA lysis and extraction buffer (Thermo Scientific) following manufacturer's protocol. Twenty to 30 μg of total protein lysates was loaded on Mini-PROTEAN TGX precast gels (Bio-Rad). Separated proteins were transferred to a polyvinylidene difluoride (PVDF) membrane using Trans-Blot Turbo Transfer System (Bio-Rad) followed by incubation with primary and horseradish peroxidase (HRP)–conjugated secondary antibodies [anti-mouse, catalog no. […]
For orientation: Immunoblotting shows a protein as a band on a membrane.

A further data set has as its system ACHN. Nature of the data set: MTT cell viability, ACHN. The settings on record: Homo sapiens, 48 h. Format: cell-based. The protocol: as §1
Another data set relates to HINT1 KO HAP1 cells. Nature of the data set: Sensitivity of HINT1 CRISPR/Cas9 knockout HAP1 cells. Type of data set: cell-based, human. To be noted: HAP1 polyclonal and clonal HINT1 KO vs WT. The protocol: Cells were transfected with stealth siRNA (catalog no. HSS104782, catalog no. HSS104784, catalog no. HSS179235; ThermoFisher) targeting HINT-1 using Lipofectamine RNAiMAX (Invitrogen) following the manufacturer's protocol. At 48 hours posttransfection, cells were treated and cell viability was measured 96 hours posttransfection as described above. Samples for Western blot analysis were harvested 48 hours posttransfection. For gene-depletion experiments, approximately 4 × 10^5 HAP1 cells were seeded per well in a 6-well plate and grown to approximately 50% confluency. After 24 hours, cells were transfected with lentiCRISPR v2 plasmid (GenScript) containing a guide RNA (gRNA) targeting gene of interest using Turbofectin (catalog no. TF81001, OriGene) according to manufacturer's instruction. The following sequences were used: HINT-1 CRISPR gRNA 2 ([…]) and NUDT2 CRISPR gRNA 2 ([…]). At 24 hours posttransfection, positively transfected cells were selected using […] puromycin for 72 hours. After selection, surviving colonies were expanded and used for downstream analysis. For clonal selection, clones were selected using limited dilution and expanded into a 6-well plate for Western blot screening.
HAP1 cells were seeded at a density of 10,000 cells per well in 6-well plates and indicated drug concentrations were added. […]

A further data set concerns HAP1 cells. Put plainly: MTT cell viability, HAP1 cells. The settings on record: Homo sapiens. Format: cell-based. The protocol:
as §1

Details of data set [4]: method as in earlier work. To be noted: patients, particularly immunotherapy-resistant melanoma; cited from earlier work.

Regarding `C[C@H](NP(=O)(OC[C@@H]1C[C@@H](O)[C@H](n2cnc3c(N)ncnc32)O1)Oc1ccccc1)C(=O)OCc1ccccc1` (stereo partly drawn) [NUC-7738, 3′-deoxyadenosine-5′-O-phenyl-(benzyloxy-L-alaninyl)-phosphate], the IC50 in the data set on Tera-1 (48 h) amounted to 4.36 µM; in the data set with UM-RC-2, 4 µM; in the data set on AGS it was 11.2 µM; in the data set on CAKI-1, 33 µM; with 786-O, 13 µM; in the data set on NCI-786, 49.5 µM. The IC50 is 42.2 µM in the data set with UO-31; 54.7 µM with ACHN; 7.32 µM with HAP1 cells (HAP1, 48 h); 7.6 µM in the data set with HAP1 cells (HAP1, read-out: IC50 concentration used for RNA-seq). For the same compound, the “sensitivity to NUC-7738 compared with 3′-dA” value in the data set with Tera-1 (Tera-1 teratocarcinoma) is “more than 40 fold”. The “nuclear p65 and tumor-cell apoptosis” value in data set [1] is “dose-dependent decrease in nuclear p65 and an increase in tumor-cell apoptosis”. In addition, in [2], the half-life in serum was 7.07 h. In [3], the “apoptotic cell death, cleaved PARP-1” value is listed as “induced apoptotic cell death”. Moreover, the “sensitivity after depletion of HINT1” value with HINT1 KO HAP1 cells was “markedly reduced sensitivity”. Further, the IC90 in the data set on HAP1 cells (HAP1, 48 h) was 54.2 µM; with HAP1 cells (HAP1, read-out: IC90 concentration used for RNA-seq), 125 µM. Besides, the antitumor activity entry in [4] was “Encouraging signals of antitumor activity and prolonged disease stabilization”.
